Data on 65 compounds can be found in patent US20250034170A1, “SMALL MOLECULE MODULATORS OF GLUCOCEREBROSIDASE ACTIVITY AND USES THEREOF” (Vanqua Bio, Inc., priority 2021, published 2025).

One may read the EC50 as the concentration that produces a half-maximal response. A lower EC50 goes with a more potent agent.

Structures are written as SMILES.

The first assay concerns the target T1, GCase (Homo sapiens, UniProt P04062).
T1 construct: endogenous in cells; host or cells: HeLa cells
T1 sequence (P04062 40-536): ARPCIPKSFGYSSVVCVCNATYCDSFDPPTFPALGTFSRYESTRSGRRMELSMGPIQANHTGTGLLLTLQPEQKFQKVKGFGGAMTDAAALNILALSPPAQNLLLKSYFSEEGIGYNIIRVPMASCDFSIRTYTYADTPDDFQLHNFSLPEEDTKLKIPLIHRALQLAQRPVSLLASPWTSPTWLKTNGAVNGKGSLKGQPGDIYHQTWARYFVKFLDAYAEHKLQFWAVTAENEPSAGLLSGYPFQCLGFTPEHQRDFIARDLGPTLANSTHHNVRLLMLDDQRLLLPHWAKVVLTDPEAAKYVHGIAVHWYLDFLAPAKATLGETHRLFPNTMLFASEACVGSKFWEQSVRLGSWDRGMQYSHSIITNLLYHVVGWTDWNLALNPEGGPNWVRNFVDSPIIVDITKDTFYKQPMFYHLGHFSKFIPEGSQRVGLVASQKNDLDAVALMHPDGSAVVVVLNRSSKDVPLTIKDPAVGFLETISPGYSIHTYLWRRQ
Description: activation of GCase in a live cell PFB assay in HELA cells. Particulars: EC50 given as range classes. Format: cell-based. On the procedure: Exemplary compounds were evaluated for activation of GCase in a live cell PFB assay in HELA cells (essentially as described in Ysselstein et al., “LRRK2 kinase activity regulates lysosomal glucocerebrosidase in neurons derived from Parkinson's disease patients” Nature Communications (2019) 10:5570). […] EC50 ranges: A: <10 μM; B: >10-50 μM; C: >50-100 μM; D: >100 μM.
For the compound `O=C(c1ccc(Cl)cc1)N1CC2(CCN(c3cnc4cnn(CC(F)F)c4n3)C2)C1` [Cmpd 378], the EC50 was over 100 µM.
As to `COc1ccc(C(=O)N2CC3(CCN(c4cnc5cnn(CC(F)F)c5n4)C3)C2)cc1` [Cmpd 379], the concentration giving a half-maximal response (EC50) fell in the range of 10 to 50 µM.
On the same count and under the same terms, the figure for `COc1cccc(C(=O)N2CC3(CCN(c4cnc5cnn(CC(F)F)c5n4)C3)C2)c1` [Cmpd 380] is under 10 µM; for `Cc1cccc(C(=O)N2CC3(CCN(c4cnc5cnn(CC(F)F)c5n4)C3)C2)c1` [Cmpd 381] it is under 10 µM; for `O=C(c1cccc(C(F)(F)F)c1)N1CC2(CCN(c3cnc4cnn(CC(F)F)c4n3)C2)C1` [Cmpd 382] it is 10 to 50 µM.
The compound `O=C(c1ccccc1Cl)N1CC2(CCN(c3cnc4cnn(CC(F)F)c4n3)C2)C1` [Cmpd 383] displayed a concentration for a half-maximal effect (EC50) of under 10 µM.

The assay is the same for the next values; noted with them: activation of GCase, EC50 ranges.
Compound `FC(F)Cn1ncc2ncc(N3CCC4(C3)CN(c3ncc(C(F)(F)F)cn3)C4)nc21` [Cmpd 319] displayed an EC50 of 10 to 50 µM.
The same measure, in the same setting: the figure for `FC(F)Cn1ncc2ncc(N3CCC4(CN(Cc5ccc(C(F)(F)F)nc5)C4)C3)nc21` [Cmpd 320] is under 10 µM.
Still for that read-out and setting: the figure for `FC(F)Cn1ncc2ncc(N3CCC4(CN(Cc5ccc(C(F)(F)F)cn5)C4)C3)nc21` [Cmpd 321] is under 10 µM; for `O=C(c1ccc(C(F)(F)F)nc1)N1CC2(CCN(c3cnc4cnn(CC(F)F)c4n3)C2)C1` [Cmpd 322] it is 10 to 50 µM.
In the case of `O=C(c1ccc(C(F)(F)F)cn1)N1CC2(CCN(c3cnc4cnn(CC(F)F)c4n3)C2)C1` [Cmpd 323], the EC50 is over 100 µM.
With `O=C(c1cnc(C(F)(F)F)nc1)N1CCC2(CCN(c3cnc4cnn(CC(F)F)c4n3)CC2)C1` [Cmpd 324], the concentration for a half-maximal effect (EC50) was in the range of 10 to 50 µM.
Regarding `O=C(c1cnc(C(F)(F)F)nc1)N1CC2(CCN(c3cnc4cnn(CC(F)F)c4n3)C2)C1` [Cmpd 325], the half-maximal effective concentration (EC50) fell in the range of 10 to 50 µM.
Take `O=C(c1cnc(C(F)(F)F)nc1)N1CC2(CCN(c3cnc4cnn(CC(F)F)c4n3)CC2)C1` [Cmpd 326]: the EC50 fell in the range of 10 to 50 µM.
`O=C(c1ccc(C(F)(F)F)nc1)N1CC2(CCN(c3cnc4cnn(CC(F)F)c4n3)CC2)C1` [Cmpd 327] showed an EC50 of 10 to 50 µM.
With `O=C(c1ccc(C(F)(F)F)cn1)N1CC2(CCN(c3cnc4cnn(CC(F)F)c4n3)CC2)C1` [Cmpd 328], the half-maximal effective concentration (EC50) is 10 to 50 µM.
The compound `O=C(c1cnc(C(F)(F)F)nc1)N1CCC2(CC1)CN(c1cnc3cnn(CC(F)F)c3n1)C2` [Cmpd 329] gave a 50% effective concentration (EC50) of 10 to 50 µM.
Same read-out and setting: as for `O=C(c1ccc(C(F)(F)F)cn1)N1CCC2(CC1)CN(c1cnc3cnn(CC(F)F)c3n1)C2` [Cmpd 330], the figure is 10 to 50 µM; as for `O=C1N(Cc2cncc(F)c2)CCC12CCN(c1cnc3cnn(CC(F)F)c3n1)CC2` [Cmpd 331], 10 to 50 µM.
`O=C1N(Cc2cncc(C(F)(F)F)c2)CCC12CCN(c1cnc3cnn(CC(F)F)c3n1)CC2` [Cmpd 332] showed a 50% effective concentration (EC50) of under 10 µM.
Consider `O=C1N(Cc2cncc(Cl)c2)CCC12CCN(c1cnc3cnn(CC(F)F)c3n1)CC2` [Cmpd 333], for which the concentration for a half-maximal effect (EC50) was under 10 µM.
On the same count and under the same terms, as for `O=C1CC2(CCN(c3cnc4cnn(CC(F)F)c4n3)CC2)CN1Cc1cncc(F)c1` [Cmpd 334], the figure is 50 to 100 µM; as for `O=C1CC2(CCN(c3cnc4cnn(CC(F)F)c4n3)CC2)CN1Cc1cncc(C(F)(F)F)c1` [Cmpd 335], 10 to 50 µM; as for `O=C1CC2(CCN(c3cnc4cnn(CC(F)F)c4n3)CC2)CN1Cc1cncc(Cl)c1` [Cmpd 336], 10 to 50 µM.
In turn, `O=C1N(c2ccnc(C(F)(F)F)c2)CCC12CN(c1cnc3cnn(CC(F)F)c3n1)C2` [Cmpd 337] had an EC50 of under 10 µM.
Still for that read-out and setting: as for `O=C1CC2(CN(c3cnc4cnn(CC(F)F)c4n3)C2)CN1c1ccnc(C(F)(F)F)c1` [Cmpd 338], the figure is 10 to 50 µM.
`O=C1N(c2cnc3cnn(CC(F)F)c3n2)CCC12CN(c1ccnc(C(F)(F)F)c1)C2` [Cmpd 339] gave a concentration for a half-maximal effect (EC50) of 10 to 50 µM.
For the compound `O=C1CC2(CN(c3ccnc(C(F)(F)F)c3)C2)CN1c1cnc2cnn(CC(F)F)c2n1` [Cmpd 340], the EC50 was under 10 µM.
On the same count and under the same terms, the figure for `O=C1N(c2ccc(C(F)(F)F)cn2)CCCC12CN(c1cnc3cnn(CC(F)F)c3n1)C2` [Cmpd 341] is 10 to 50 µM.
On the same count and under the same terms, as for `O=C1N(c2cnc3cnn(CC(F)F)c3n2)CCCC12CN(c1ccc(C(F)(F)F)nc1)C2` [Cmpd 342], the figure is over 100 µM.
Regarding `O=C1N(c2cnc3cnn(CC(F)F)c3n2)CCCC12CN(c1ccc(C(F)(F)F)cn1)C2` [Cmpd 343], the EC50 was over 100 µM.
On the same count and under the same terms, as for `FC(F)(F)c1cc(N2CCC3(C2)CN(c2cnc4cnn(C5COC5)c4n2)C3)ccn1` [Cmpd 344], the figure is under 10 µM; as for `Cc1nn(C2COC2)c2nc(N3CC4(CCN(c5ccnc(C(F)(F)F)c5)C4)C3)cnc12` [Cmpd 345], under 10 µM; as for `O=C1N(c2ccnc(C(F)(F)F)c2)CCC12CN(c1cnc3cnn(C4COC4)c3n1)C2` [Cmpd 346], 50 to 100 µM.
Take `Cc1nn(C2COC2)c2nc(N3CC4(CCN(c5ccnc(C(F)(F)F)c5)C4=O)C3)cnc12` [Cmpd 347]: the EC50 was 10 to 50 µM.
As for `O=C1CC2(CN(c3cnc4cnn(C5COC5)c4n3)C2)CN1c1ccnc(C(F)(F)F)c1` [Cmpd 348], the EC50 was 10 to 50 µM.
Still for that read-out and setting: as for `Cc1nn(C2COC2)c2nc(N3CC4(CC(=O)N(c5ccnc(C(F)(F)F)c5)C4)C3)cnc12` [Cmpd 349], the figure is 10 to 50 µM; as for `FC(F)(F)Cn1ncc2ncc(N3CC4(CCN(c5ccnc(C(F)(F)F)c5)C4)C3)nc21` [Cmpd 350], under 10 µM.
In the case of `FC(F)Cn1ncc2cnc(N3CC4(CCN(c5ccnc(C(F)(F)F)c5)C4)C3)nc21` [Cmpd 351], the EC50 is under 10 µM.
Turning to `Cc1nn(CC(F)F)c2nc(N3CC4(CCN(c5ccnc(C(F)(F)F)c5)C4)C3)ncc12` [Cmpd 352], the concentration for a half-maximal effect (EC50) is under 10 µM.
As to `Cc1nn(CC(F)F)c2nc(N3CC4(CCN(c5ccnc(C(F)(F)F)c5)C4)C3)cnc12` [Cmpd 353], the concentration for a half-maximal effect (EC50) was under 10 µM.
In turn, `O=C1N(Cc2cccc(C(F)(F)F)n2)CCC12CCN(c1cnc3cnn(CC(F)F)c3n1)CC2` [Cmpd 354] had a concentration giving a half-maximal response (EC50) of under 10 µM.
With `O=C1N(Cc2cc(C(F)(F)F)ccn2)CCC12CCN(c1cnc3cnn(CC(F)F)c3n1)CC2` [Cmpd 355], the EC50 was under 10 µM.
Take `CCOc1ccc(CN2CCC3(CCN(c4cnc5cnn(CC(F)F)c5n4)CC3)C2=O)cn1` [Cmpd 356]: the concentration giving a half-maximal response (EC50) was 10 to 50 µM.
The same measure, in the same setting: as for `O=C1N(Cc2ccnc(C(F)(F)F)c2)CCC12CCN(c1cnc3cnn(CC(F)F)c3n1)CC2` [Cmpd 357], the figure is under 10 µM; as for `O=C1N(Cc2cc(F)cc(F)c2)CCC12CCN(c1cnc3cnn(CC(F)F)c3n1)CC2` [Cmpd 358], under 10 µM; as for `O=C1CC2(CCN(c3cnc4cnn(CC(F)F)c4n3)CC2)CN1Cc1cc(C(F)(F)F)ccn1` [Cmpd 359], under 10 µM.
`O=C1CC2(CCN(c3cnc4cnn(CC(F)F)c4n3)CC2)CN1Cc1cccc(C(F)(F)F)n1` [Cmpd 360] gave an EC50 of under 10 µM.
The compound `CCOc1ccc(CN2CC3(CCN(c4cnc5cnn(CC(F)F)c5n4)CC3)CC2=O)cn1` [Cmpd 361] returned a concentration giving a half-maximal response (EC50) of 10 to 50 µM.
Regarding `O=C1CC2(CCN(c3cnc4cnn(CC(F)F)c4n3)CC2)CN1Cc1ccnc(C(F)(F)F)c1` [Cmpd 362], the half-maximal effective concentration (EC50) was under 10 µM.
The compound `O=C1CC2(CCN(c3cnc4cnn(CC(F)F)c4n3)CC2)CN1Cc1cc(F)cc(F)c1` [Cmpd 363] came in with an EC50 of under 10 µM.
The same measure, in the same setting: the figure for `CCc1csc(CN2CCC3(CCN(c4cnc5cnn(CC(F)F)c5n4)CC3)C2=O)n1` [Cmpd 364] is under 10 µM; for `O=C1N(Cc2nc(C(F)(F)F)cs2)CCC12CCN(c1cnc3cnn(CC(F)F)c3n1)CC2` [Cmpd 365] it is 10 to 50 µM; for `O=C1N(Cc2cnc(C(F)(F)F)s2)CCC12CCN(c1cnc3cnn(CC(F)F)c3n1)CC2` [Cmpd 366] it is under 10 µM.
For `CCc1csc(CN2CC3(CCN(c4cnc5cnn(CC(F)F)c5n4)CC3)CC2=O)n1` [Cmpd 367], the EC50 is 10 to 50 µM.
`O=C1CC2(CCN(c3cnc4cnn(CC(F)F)c4n3)CC2)CN1Cc1nc(C(F)(F)F)cs1` [Cmpd 368] yielded an EC50 of under 10 µM.
As for `O=C1CC2(CCN(c3cnc4cnn(CC(F)F)c4n3)CC2)CN1Cc1cnc(C(F)(F)F)s1` [Cmpd 369], the EC50 fell in the range of 10 to 50 µM.
The same measure, in the same setting: the figure for `O=C(c1ccc(OC(F)(F)F)cc1)N1CC2(CCN(c3cnc4cnn(CC(F)F)c4n3)C2)C1` [Cmpd 370] is 10 to 50 µM; for `O=C(c1cccc(Cl)c1)N1CC2(CCN(c3cnc4cnn(CC(F)F)c4n3)C2)C1` [Cmpd 371] it is under 10 µM.
`O=S(=O)(c1ccc(C(F)(F)F)cc1)N1CC2(CCN(c3cnc4cnn(CC(F)F)c4n3)C2)C1` [Cmpd 372] had an EC50 of 10 to 50 µM.
`O=S(=O)(c1ccc(F)cc1)N1CC2(CCN(c3cnc4cnn(CC(F)F)c4n3)C2)C1` [Cmpd 373] came in with an EC50 of 10 to 50 µM.
On the same count and under the same terms, as for `O=S(=O)(c1cccc(C(F)(F)F)c1)N1CC2(CCN(c3cnc4cnn(CC(F)F)c4n3)C2)C1` [Cmpd 374], the figure is 10 to 50 µM.
For `O=S(=O)(c1cccc(F)c1)N1CC2(CCN(c3cnc4cnn(CC(F)F)c4n3)C2)C1` [Cmpd 375], the concentration giving a half-maximal response (EC50) is under 10 µM.
On the same count and under the same terms, as for `FC(F)(F)c1cc(N2CCC3(C2)CN(c2ncc4cnn(C5COC5)c4n2)C3)ccn1` [Cmpd 376], the figure is 10 to 50 µM; as for `O=C(c1ccc(C(F)(F)F)cc1)N1CC2(CCN(c3cnc4cnn(CC(F)F)c4n3)C2)C1` [Cmpd 377], over 100 µM.
